Data on 16 compounds can be found in US12059499B2, “Liposome loading” (PLUMB PHARMACEUTICALS, INC., priority 2015, dated 2024).

Like-named read-outs stand apart in the source and are kept apart here.

The conditions of data set [1]: cited from earlier work.
For data set [2] the following is noted: partly stated as estimated; cited from earlier work.
A short description of data set [3]: Liposome leakage, sedimentation method. The class given is physicochemical. On the procedure: Liposome Leakage, Sedimentation Method. Liposome samples were diluted to 3-5 mL and left on an orbital shaker at 22° C. At specific time points, the liposomes were sedimented in a centrifuge at 300×g for 5 minutes and an aliquot of the clear supernatant was analyzed spectrophotometrically for drug and loading base content. After measurement, the solution was returned to the liposome suspension, which was vortexed and returned to the orbital shaker.
Then, 400 microliters of a pyridinium salt solution (prewarmed to 58° C.) were added to the lipid suspension. The mixture was kept at 58° C. for 5 minutes and then 100 microliters of the pyridinium salt solution were added. […] A total of three washes were performed. […] The samples were subsequently monitored for release of naltrexone using the sedimentation method. Two trials were performed for each condition.

Data set [4] in a line: Leakage of drug from loaded liposomes, Examples 5 to 8 (method not named). To be noted: for leakage of chloroquine from liposomes loaded using this base, compared among three loading bases: adenine triflate, aniline triflate, pyridinium sulfate.
The conditions of data set [5]: cited from earlier work. The source holds these as a separate data set.
A short description of data set [6]: Liposome leakage, dialysis method. The following applies: for pyridine leakage from the liposomes: slower after 3 days.
Protocol: A 0.5-mL aliquot of liposome suspension was placed in a section of dialysis tubing tied at one end. The tubing was tied at the other end to form a sealed bag. The bag was placed in 4.5 mL of isotonic NaCl saline solution and placed on an orbital shaker. At specific time points, the dialysis bags were exchanged into fresh isotonic NaCl and the drug and loading base were quantified spectophotometrically in the external dialysis solutions.
For data set [7] the following is noted: administered orally; cited from earlier work.
For data set [8] the following is noted: cited from earlier work. The source holds these as a separate data set.
Where [9] appears, read: 1.5 M pyridinium sulfate liposomes.
The mark [10] stands for this setting: liposomes loaded with this pyridinium salt.

The term log P denotes a log measure of how a compound divides between an organic and an aqueous phase. Regarding `COc1ccccn1` [2-methoxypyridine], in data set [1], the “solubility in water” value is recorded as “limited solubility in water”. In data set [2], the “log P” value was “approximately 1.3”.
Take `C1=Cc2cccc(OC[C@H]3CNCCO3)c2C1.O=S(=O)(O)c1ccccc1` [Benzenesulfonate]: the “naltrexone release rate compared with sulfate and eprodisate salts” value in data set [3] was “higher release rates”.
`Cl.c1ccncc1` [Chloride, pyridinium chloride]: in data set [3], the “release of naltrexone in about 300 hours” value is given as 20%.
Regarding `CCC(C)O` (stereo not drawn) [Example 2-butanol, 2-butanol], in data set [2], the “log P” value is reported as 0.683.
As for `O=[N+]([O-])O` [Nitrate], in data set [3], the “release of naltrexone in 500 hours” value is reported as “over 70%” and the “release of naltrexone in 860 hours” value worked out at 90%.
Broadly, the pKa is the pH at which an ionisable group is half protonated. On to `Nc1ncnc2nc[nH]c12` [adenine, 6-aminopurine], for which the “leakage of chloroquine from liposomes loaded using this base, compared among three loading bases” value in data set [4] was “least rapid”. Also, in data set [1], the “solubility in water” value was “very limited solubility in water”. Besides, in data set [5], the pKa is 4.15.
With `N` [ammonia, reference compound], the “log P” value in data set [2] was “approximately −0.3”.
`Nc1ccccc1` [aniline]: the “leakage of chloroquine from liposomes loaded using this base, compared among three loading bases” value in data set [4] is given as “most rapid”.
As to `CCN(CC)CCCC(C)Nc1ccnc2cc(Cl)ccc12` (stereo not drawn) [chloroquine, reference compound], the “leakage after 400 hours” value in data set [4] (DPPC:cholesterol liposomes loaded with a sulfate salt of pyridine) is recorded as 4-8%; in data set [4] (loaded with the eprodisate salts of both pyridine and 2-methoxypyridine), at most 1%. In data set [6] (0.133 M ammonium sulfate gradient liposomes (comparison)), the “leakage of loaded drug in the first 24 hours” value is 18%.
For `O=C1CC[C@@]2(O)[C@H]3Cc4ccc(O)c5c4[C@@]2(CCN3CC2CC2)[C@H]1O5` [naltrexone, reference compound], in data set [3] (setting [9]), the “initial release at 24 hours” value is listed as “approximately 4%” and the “liposome contents released in 672 hours” value is 20%. Also, in data set [3] (1.5 M pyridinium sulfate liposomes, over 672 hours), the release rate entry was “less than 1 % per day”. Besides, the “log P” value in data set [2] is on record as 1.3. Moreover, the pKa in data set [5] is given as 7.3.
In the case of `NC(=O)c1cccnc1` [nicotinamide], in data set [1] (pH 2-3 and room temperature), the “concentration of solutions of the salt with most strong acids (as concentrated as)” value is reported as at most 4 M. The “oral dose with no toxic effects (as high as)” value in data set [7] was at most 3 gm/day. For the same compound, the pKa in data set [5] is given as 3.25.
`CN1CC[C@]23c4c5ccc(O)c4O[C@H]2C(=O)CC[C@@]3(O)[C@H]1C5` [oxymorphone]: the release time entry in data set [8] (animal studies, egg phosphatidylcholine and cholesterol vesicles) is given as “approximately 24 hours”; in data set [8] (dipalmitoylphosphatidylcholine and cholesterol vesicles), “approximately 72 hours”.
Regarding `c1ccnnc1` [pyridazine], in data set [1], the “solubility in water” value is on record as “miscible with water at all ratios”. Moreover, the “log P” value in data set [2] is on record as “approximately −0.7”.
For the compound `c1ccncc1` [pyridine], the “pyridine leakage from the liposomes” value in data set [6] (0.5 M pyridinium sulfate liposomes loaded with 2.5 or 5 μmol chloroquine) and in data set [6] (1 M pyridinium chloride liposomes loaded with 2.5 or 5 μmol chloroquine) was “initially very rapid” each time. Moreover, the “pyridine loss from liposomes” value in data set [6] (0.5 M pyridinium sulfate liposomes loaded with 10 or 20 μmol chloroquine) and in data set [6] (1 M pyridinium chloride liposomes loaded with 10 or 20 μmol chloroquine) was “minimal” each time.
With `O=S(=O)(O)CCCS(=O)(=O)O.c1ccncc1.c1ccncc1` [pyridinium eprodisate], in data set [3] (setting [10]), the “release of naltrexone in 900 hours” value is recorded as around 5%.
As for Methanesulfonate, in data set [3] (setting [10]), the “naltrexone release rate compared with sulfate and eprodisate salts” value is given as “higher release rates”.
